{
  "source": "patent US20260083698A1",
  "about": "“Synergistic Stimulation of Mucociliary Clearance to Treat Mucus Obstruction in Cystic Fibrosis and Other Muco-Obstructive Disorders” (The Board of Trustees of the Leland Stanford Junior …, priority 2022, published 2026)",
  "key": {"[1]": {"test_system": "piglet or ferret tracheal rings", "assay": "Airway narrowing: lumen area of thin sliced tracheal rings, carbachol", "parameters": "species or system pig; ferret", "conditions": "0.3 mM carbachol alone", "procedure": "FIG. 2. Elevating cAMP by adenylate cyclase activation inhibited muscle tension and airway narrowing to carbachol. (A, B) To measure muscle tension, one end of an isolated WT ferret trachealis muscle bundle was secured in a Sylgard-lined Petri dish filled with KRB solution and the other end was attached by 26-gauge wire to a previously calibrated strain gauge. […] (red closed circles). Averaged responses at 10 min intervals are shown for: (C) WT piglet tracheas (n=3-7) with forskolin. […] (F). CF ferrets (n=2, one CFTRΔF/ΔF and one CFTRΔF/G551D). […] Used alone they have opposite effects: Ca^2+-elevating agonists contract muscles whereas cAMP-elevating agonists relax them. For therapeutic use, the potential for producing unwanted bronchoconstriction with the combined agonists is a safety concern. […] Tension of ferret trachealis muscle bundles was measured to increasing carbachol concentrations±[…] forskolin. […] Importantly, the protective effect was also observed in CF ferrets (FIG. 2F). Airway smooth muscle contraction measurement. Two methods were used to measure tracheal smooth muscle contraction. One is designed to measure airway narrowing using thin sliced tracheal rings. Piglet or ferret tracheal ring preparations of ˜2 mm were submerged and securely pinned on a Sylgard-lined Petri dish filled with KRB solution at 37° C. and pH 7.4. […] The other method is using a force transducer. […]"}, "ferret tracheal mucosa": {"test_system": "ferret tracheal mucosa", "assay": "Short circuit current (Isc), Ussing chamber, ferret", "conditions": "WT ferrets; 30 min single agonist then 30 min combined", "source_text": "FIG. 4. Combined agonists inhibit sodium absorption and stimulate anion secretion by surface epithelia. (A) Cartoon of two electrogenic, ion transport pathways across airway apical epithelium: anion secretion increases surface fluid, Na+ absorption decreases surface fluid. The two pathways have opposite effects on fluid depth, but additive effects on short circuit current (Isc) because of their opposite valence and transport directions. (B) Raw trace of Isc across pig tracheal epithelium using Chart 4 software. After reaching a stable, unstimulated Isc (here, >2 h post-mounting), 10 μM forskolin, 0.3 μM carbachol, 10 μM benzamil, 20 μM benzopyrimido-pyrrolo-oxazinedione (BPO-27) and 200 μM niflumic acid were sequentially added at times shown. (C, D) Pig tracheal mucosa: averaged Δ Isc plots over time in response to (C) forskolin alone followed by forskolin+carbachol and (D) reversed order of agonist addition. (E & F) Ferret tracheal mucosa: averaged A Isc plots with same protocol as for pigs. Pig traces (C, D) are based on 10-12 experiments with tissues from 6 to 7 pigs. Ferret traces (E, F) are from 7 experiments with tissues from 5 ferrets. […]\nElectrophysiology. […] Total tissue conductance was calculated by applying Ohm's law to the Isc deflection resulting from a 1 mV pulse across the tissues every 20 s during the experiment. […]"}},
  "data": [
    {"smiles": "C[N+](C)(C)CCOC(N)=O", "note": "[carbachol]", "values": [
      {"measurement": "sustained reduction of lumen area", "setting": "[1]", "value": "20-40%"},
      {"measurement": "ΔIsc, summary plots", "setting": "ferret tracheal mucosa", "value": "decreased directly or after a transient increase"}
    ]}
  ]
}
